Data on 14 compounds can be found in publication PMC8397297 (ACS Chemical Neuroscience, 2021).

For test [1], the target named is T1, mGAT1 (Mus musculus, UniProt P31648).
T1 construct: expressed in transfected cells; host or cells: HEK-293
In words: [3H]GABA uptake assay in HEK-293 cells stably expressing mGAT1. It is filed as cell-based. To be noted: for IC50: [3H]GABA uptake, read-out: pIC50 ± SEM mGAT1 (converted).

The target in the next test is T2, mGAT4 (Mus musculus, UniProt P31650).
T2 construct: expressed in transfected cells; host or cells: HEK-293
T2 sequence (P31650 1-627): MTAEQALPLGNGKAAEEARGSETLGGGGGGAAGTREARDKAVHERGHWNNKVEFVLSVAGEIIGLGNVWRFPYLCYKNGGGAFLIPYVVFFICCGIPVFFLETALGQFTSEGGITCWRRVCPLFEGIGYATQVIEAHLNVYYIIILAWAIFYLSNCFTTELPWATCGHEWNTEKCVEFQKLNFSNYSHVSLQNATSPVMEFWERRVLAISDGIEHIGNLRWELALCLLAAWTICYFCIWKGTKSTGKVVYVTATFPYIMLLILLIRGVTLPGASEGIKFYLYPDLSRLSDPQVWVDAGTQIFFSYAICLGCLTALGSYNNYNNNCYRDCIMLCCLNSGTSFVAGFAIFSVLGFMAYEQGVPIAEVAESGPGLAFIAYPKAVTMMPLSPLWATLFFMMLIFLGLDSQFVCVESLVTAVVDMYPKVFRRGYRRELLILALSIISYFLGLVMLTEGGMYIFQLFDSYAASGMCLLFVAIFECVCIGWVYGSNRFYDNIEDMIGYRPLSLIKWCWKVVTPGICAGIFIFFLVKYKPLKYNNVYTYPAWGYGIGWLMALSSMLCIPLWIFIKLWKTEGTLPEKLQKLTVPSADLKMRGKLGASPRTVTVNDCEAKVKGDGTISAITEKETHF
In words: [3H]GABA uptake assay in HEK-293 cells stably expressing mGAT4. It is filed as cell-based. To be noted: [3H]GABA uptake; read-out: pIC50 ± SEM mGAT4 (converted).

For test [2], the target named is T1, mGAT1. The test can be described thus: competitive MS binding assay with NO711 as unlabeled marker (LC-ESI-MS/MS). To be noted: for remaining NO711 binding mGAT1: in the presence of 100 μM inhibitor. As for the experimental part: Specific binding affinity toward mGAT1 was determined via a competitive mass spectrometry (MS) binding assay quantified by liquid chromatography–electrospray ionization tandem mass spectrometry (LC–ESI-MS/MS) with NO711 as an unlabeled marker.[50]
MS binding assays for mGAT1 were performed as described earlier.[50] Inhibition of mGAT1 binding by the synthesized compounds was determined in MS binding assays at a screening concentration of 100 μM and analyzed by LC–ESI-MS/MS.

Another test has as its target T3, mGAT2 (Mus musculus, UniProt P31651).
T3 construct: expressed in transfected cells; host or cells: HEK-293
T3 sequence (P31651 1-614): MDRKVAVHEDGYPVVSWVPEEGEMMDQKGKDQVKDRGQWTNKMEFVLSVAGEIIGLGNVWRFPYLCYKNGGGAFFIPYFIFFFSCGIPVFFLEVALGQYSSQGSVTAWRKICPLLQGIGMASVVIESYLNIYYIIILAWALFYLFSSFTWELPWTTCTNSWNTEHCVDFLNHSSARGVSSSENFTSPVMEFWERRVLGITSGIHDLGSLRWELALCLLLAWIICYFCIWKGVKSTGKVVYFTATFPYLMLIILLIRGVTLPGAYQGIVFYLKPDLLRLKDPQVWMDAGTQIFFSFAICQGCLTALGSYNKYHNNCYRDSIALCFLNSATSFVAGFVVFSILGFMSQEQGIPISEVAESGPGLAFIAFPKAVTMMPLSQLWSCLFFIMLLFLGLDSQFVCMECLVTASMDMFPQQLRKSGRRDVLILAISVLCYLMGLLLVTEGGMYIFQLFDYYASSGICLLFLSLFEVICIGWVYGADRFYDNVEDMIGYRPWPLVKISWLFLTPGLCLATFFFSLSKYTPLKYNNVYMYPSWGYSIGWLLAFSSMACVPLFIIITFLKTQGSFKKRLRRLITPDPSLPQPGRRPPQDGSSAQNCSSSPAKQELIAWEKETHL
The test can be described thus: [3H]GABA uptake assay in HEK-293 cells stably expressing mGAT2. The class given is cell-based. To be noted: [3H]GABA uptake; read-out: pIC50 ± SEM mGAT2 (converted).

The target in another test is T4, mGAT3 (Mus musculus, UniProt P31649).
T4 construct: expressed in transfected cells; host or cells: HEK-293
T4 sequence (P31649 1-602): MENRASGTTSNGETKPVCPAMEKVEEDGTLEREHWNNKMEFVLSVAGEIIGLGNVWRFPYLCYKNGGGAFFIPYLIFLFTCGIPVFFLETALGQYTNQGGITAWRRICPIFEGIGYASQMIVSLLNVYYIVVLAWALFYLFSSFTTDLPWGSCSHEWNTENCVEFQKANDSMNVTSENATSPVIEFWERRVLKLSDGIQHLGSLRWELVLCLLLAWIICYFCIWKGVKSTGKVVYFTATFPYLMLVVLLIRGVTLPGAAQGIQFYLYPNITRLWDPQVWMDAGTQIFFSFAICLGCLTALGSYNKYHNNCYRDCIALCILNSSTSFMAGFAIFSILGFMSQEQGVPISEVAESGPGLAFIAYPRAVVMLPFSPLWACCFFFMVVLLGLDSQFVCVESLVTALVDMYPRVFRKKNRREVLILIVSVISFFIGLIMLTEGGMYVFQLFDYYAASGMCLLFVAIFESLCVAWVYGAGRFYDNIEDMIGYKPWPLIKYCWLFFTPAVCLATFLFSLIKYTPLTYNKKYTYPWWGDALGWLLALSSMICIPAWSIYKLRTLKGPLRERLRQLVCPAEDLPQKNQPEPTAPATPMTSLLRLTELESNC
The test can be described thus: [3H]GABA uptake assay in HEK-293 cells stably expressing mGAT3. The class given is cell-based. To be noted: [3H]GABA uptake; read-out: pIC50 ± SEM mGAT3 (converted).

SMILES strings stand for the structures.

For `Cc1ccsc1C(=C1CCN(C(CO)C(=O)NCc2ccc(F)cc2)CC1)c1sccc1C` (stereo not shown) [Compound 54c, 2-{4-[Bis(3-methylthiophen-2-yl)methylidene]piperidin-1-yl}-N-[(4-fluorophenyl)methyl]-3-hydroxypropanamide], the IC50 at mGAT1 [1] was 17 µM; on mGAT4, 28.8 µM; at mGAT2, 13.8 µM; at mGAT3, 16.2 µM. The “remaining NO711 binding mGAT1” value on mGAT1 [2] was 100 μM: 96%.
For `CN(CCC=C1c2ccccc2C=Cc2ccccc21)C(CO)C(=O)NCc1ccccc1` (stereo not shown) [Compound 55a, 2-((3-(5H-Dibenzo[a,d][7]annulen-5-ylidene)propyl)(methyl)amino)-N-benzyl-3-hydroxypropanamide], the IC50 at mGAT1 [1] was 17.4 µM; on mGAT4, 8.32 µM; at mGAT2, 26.3 µM; on mGAT3, 15.8 µM. Further, the “remaining NO711 binding mGAT1” value on mGAT1 [2] is reported as 100 μM: 83%.
The corresponding values for `CN(CCC=C1c2ccccc2C=Cc2ccccc21)C(CO)C(=O)NCc1ccccc1Cl` (stereo not shown) [Compound 55b, 2-((3-(5H-Dibenzo[a,d][7]annulen-5-ylidene)propyl)(methyl)amino)-N-(2-chlorobenzyl)-3-hydroxypropanamide] are 25.7 µM, 9.55 µM, 15.8 µM, 10.7 µM and 100 μM: 65%.
The like results for `CN(CCC=C1c2ccccc2C=Cc2ccccc21)C(CO)C(=O)NCc1ccc(Cl)cc1` (stereo not shown) [Compound 55c, 2-((3-(5H-Dibenzo[a,d][7]annulen-5-ylidene)propyl)(methyl)amino)-N-(4-chlorobenzyl)-3-hydroxypropanamide] were, in that order, 28.8 µM, 16.6 µM, 60.3 µM, 15.1 µM and 100 μM: 49%.
Consider `CN(CCC=C1c2ccccc2C=Cc2ccccc21)C(CO)C(=O)NCc1ccc(F)cc1` (stereo not shown) [Compound 55d], for which the IC50 at mGAT1 [1] is 26.3 µM; at mGAT4, 17 µM; at mGAT2, 20.4 µM; at mGAT3, 10.5 µM. Besides, the “remaining NO711 binding mGAT1” value on mGAT1 [2] is given as 100 μM: 90%.
On to `Cc1ccc(CNC(=O)C(CO)N(C)CCC=C2c3ccccc3C=Cc3ccccc32)cc1` (stereo not shown) [Compound 55e, 2-((3-(5H-Dibenzo[a,d][7]annulen-5-ylidene)propyl)(methyl)amino)-N-(4-methylbenzyl)-3-hydroxypropanamide], for which the IC50 at mGAT1 [1] was 26.9 µM; on mGAT4 it was 13.2 µM; at mGAT2 it was 21.4 µM; at mGAT3, 15.8 µM. Moreover, the Ki on mGAT1 [2] (MS binding assay, read-out: pKi ± SEM mGAT1 (converted)) is 29.5 µM.
With `CN(CCC=C1c2ccccc2CCc2ccccc21)C(CO)C(=O)NCc1ccccc1Cl` (stereo not shown) [Compound 56b, N-(2-Chlorobenzyl)-2-((3-(10.11-dihydro-5H-dibenzo[a,d][7]annulen-5-ylidene)propyl)(methyl)amino)-3-hydroxypropanamide], on mGAT1 [1] (in the presence of 100 μM inhibitor), the “remaining [3H]GABA uptake mGAT1” value is given as 100 μM: 50%. The IC50 on mGAT4 is 27.5 µM; on mGAT2, 25.7 µM; at mGAT3, 10.5 µM. For the same compound, the “remaining NO711 binding mGAT1” value at mGAT1 [2] is on record as 100 μM: 86%.
Turning to `CN(CCC=C1c2ccccc2CCc2ccccc21)C(CO)C(=O)NCc1ccc(Cl)cc1` (stereo not shown) [Compound 56c, N-(4-Chlorobenzyl)-2-((3-(10,11-dihydro-5H-dibenzo[a,d][7]annulen-5-ylidene)propyl)(methyl)amino)-3-hydroxypropanamide], the IC50 at mGAT1 [1] was 61.7 µM; on mGAT4 it was 10.2 µM; on mGAT2, 29.5 µM; at mGAT3, 14.5 µM. Also, on mGAT1 [2], the “remaining NO711 binding mGAT1” value is 100 μM: 87%.
The corresponding values for `CN(CCC=C1c2ccccc2CCc2ccccc21)C(CO)C(=O)NCc1ccc(F)cc1` (stereo not shown) [Compound 56d, N-(4-Fluorobenzyl)-2-((3-(10,11-dihydro-5H-dibenzo[a,d][7]annulen-5-ylidene)propyl)(methyl)amino)-3-hydroxypropanamide] are 17.8 µM, 12.3 µM, 21.4 µM, 12.9 µM and 100 μM: 96%.
Turning to `O=C(NCc1ccccc1)C(CO)N1CCC(=C2c3ccccc3-c3ccccc32)CC1` (stereo not shown) [Compound 57, N-Benzyl-2-[4-(9H-fluoren-9-ylidene)piperidin-1-yl]-3-hydroxypropanamide], the IC50 is 24.5 µM on mGAT1 [1], 36.3 µM on mGAT4, 17.8 µM at mGAT2 and 69.2 µM on mGAT3. For the same compound, at mGAT1 [2], the “remaining NO711 binding mGAT1” value is recorded as 100 μM: 84%.
For the compound `O=C(NCc1ccccc1)C(CO)N1CCC(=C2c3ccccc3CCc3ccccc32)CC1` (stereo not shown) [Compound 58, N-Benzyl-2-(4-(10,11-dihydro-5H-dibenzo[a,d][7]annulen-5-ylidene)piperidin-1-yl)-3-hydroxypropanamide], the IC50 on mGAT1 [1] was 35.5 µM; on mGAT4, 23.4 µM; at mGAT2, 22.4 µM; at mGAT3 it was 20.9 µM. Further, the “remaining NO711 binding mGAT1” value at mGAT1 [2] is recorded as 100 μM: 83%.
As to `CN(CCON=C(c1ccccc1)c1ccccc1)C(CO)C(=O)NCc1ccccc1` (stereo not shown) [Compound 59a, N-Benzyl-2-((2-(((diphenylmethylene)amino)oxy)ethyl)(methyl)amino)-3-hydroxypropanamide], the IC50 on mGAT1 [1] was 22.9 µM; on mGAT4, 26.9 µM; at mGAT2, 22.9 µM; at mGAT3, 58.9 µM. At mGAT1 [2], the “remaining NO711 binding mGAT1” value is reported as 100 μM: 80%.
`CN(CCON=C(c1ccccc1)c1ccccc1)C(CO)C(=O)NCc1ccccc1Cl` (stereo not shown) [Compound 59b]: the IC50 was 44.7 µM at mGAT1 [1], 12.9 µM at mGAT4, 12.9 µM at mGAT2 and 15.8 µM at mGAT3. The “remaining NO711 binding mGAT1” value on mGAT1 [2] is recorded as 100 μM: 92%.
Regarding `CN(CCON=C(c1ccccc1)c1ccccc1)C(CO)C(=O)NCc1ccc(F)cc1` (stereo not shown) [Compound 59c, 2-((2-(((Diphenylmethylene)amino)oxy)ethyl)(methyl)amino)-N-(4-fluorobenzyl)-3-hydroxypropanamide], the IC50 on mGAT1 [1] was 26.3 µM; at mGAT4 it was 16.6 µM; on mGAT2 it was 17 µM; on mGAT3 it was 19.5 µM. In addition, the “remaining NO711 binding mGAT1” value on mGAT1 [2] is 100 μM: 84%.
